Reference: patent publication US12516039B2, “N-linked isoquinoline amides as LRRK2 inhibitors, pharmaceutical compositions, and uses thereof” (Merck Sharp & Dohme LLC, priority 2020, dated 2026)

Each compound was assayed against T1, GST-tagged truncated human mutant G2019S LRRK2 (Homo sapiens, UniProt Q5S007, G2019S) (assay: LRRK2 G2019S Km ATP LanthaScreen assay). Conditions: 134 μM ATP (Km ATP), LRRKtide substrate, mean of several tests, read-out: LRRK2 pIC50 (converted).
T1 construct: GST-tagged truncated human mutant G2019S LRRK2; purchased Life Technologies Corporation (Carlsbad, CA)
T1 sequence (Q5S007 970-2527 G2019S limits assumed): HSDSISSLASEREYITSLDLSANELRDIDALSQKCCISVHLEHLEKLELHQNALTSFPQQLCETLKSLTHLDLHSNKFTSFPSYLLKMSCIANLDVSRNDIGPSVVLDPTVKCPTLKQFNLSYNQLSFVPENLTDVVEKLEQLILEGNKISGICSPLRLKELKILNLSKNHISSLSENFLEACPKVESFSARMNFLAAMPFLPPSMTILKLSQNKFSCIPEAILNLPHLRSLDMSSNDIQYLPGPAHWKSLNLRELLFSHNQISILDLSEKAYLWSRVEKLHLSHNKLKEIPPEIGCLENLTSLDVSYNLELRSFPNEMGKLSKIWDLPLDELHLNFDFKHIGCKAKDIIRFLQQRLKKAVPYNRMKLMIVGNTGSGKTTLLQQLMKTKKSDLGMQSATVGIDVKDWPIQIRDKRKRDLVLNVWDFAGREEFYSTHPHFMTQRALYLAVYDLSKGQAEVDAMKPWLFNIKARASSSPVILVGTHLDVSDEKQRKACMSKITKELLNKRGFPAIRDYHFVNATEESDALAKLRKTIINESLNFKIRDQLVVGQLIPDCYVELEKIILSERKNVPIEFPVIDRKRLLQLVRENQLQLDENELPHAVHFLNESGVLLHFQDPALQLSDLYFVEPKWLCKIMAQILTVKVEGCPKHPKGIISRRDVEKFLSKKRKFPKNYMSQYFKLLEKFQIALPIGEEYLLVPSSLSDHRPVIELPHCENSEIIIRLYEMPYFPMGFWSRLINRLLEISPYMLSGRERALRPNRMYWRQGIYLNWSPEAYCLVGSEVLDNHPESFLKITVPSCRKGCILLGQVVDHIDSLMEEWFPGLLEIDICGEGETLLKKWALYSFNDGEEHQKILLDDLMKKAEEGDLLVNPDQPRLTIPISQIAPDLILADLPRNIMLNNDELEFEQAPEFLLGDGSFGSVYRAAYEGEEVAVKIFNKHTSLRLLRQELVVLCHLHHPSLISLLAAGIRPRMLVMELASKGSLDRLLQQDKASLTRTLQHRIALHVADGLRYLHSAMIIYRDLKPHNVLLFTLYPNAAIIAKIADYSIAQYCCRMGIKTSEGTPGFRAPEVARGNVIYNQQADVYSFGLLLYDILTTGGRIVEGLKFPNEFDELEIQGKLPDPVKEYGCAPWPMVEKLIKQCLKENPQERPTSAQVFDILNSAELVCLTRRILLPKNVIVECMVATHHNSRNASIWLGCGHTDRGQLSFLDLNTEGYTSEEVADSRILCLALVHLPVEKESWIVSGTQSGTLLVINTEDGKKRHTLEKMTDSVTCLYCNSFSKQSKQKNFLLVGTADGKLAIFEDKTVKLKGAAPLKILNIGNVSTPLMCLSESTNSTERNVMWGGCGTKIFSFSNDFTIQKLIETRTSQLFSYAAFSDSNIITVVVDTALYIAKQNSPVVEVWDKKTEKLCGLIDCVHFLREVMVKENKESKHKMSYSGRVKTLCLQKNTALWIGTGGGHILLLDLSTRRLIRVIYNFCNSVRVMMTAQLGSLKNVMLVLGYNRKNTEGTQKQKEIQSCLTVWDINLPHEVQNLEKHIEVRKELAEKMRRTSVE
Type: biochemical
Procedure, shortened: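 GST-tagged truncated human LRRK2 G2019S (1.25 nM enzyme solution) was preincubated 15 min with compound, then reacted 90 min at ambient temperature with fluorescein-LRRKtide (400 nM solution) and 134 μM ATP (Km) in Tris pH 8.5. EDTA stop; Tb anti-phospho-LRRKtide TR-FRET (520/495 ratio). IC50 from 4-parameter fits, mean of several runs.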
`CC1(C2CCOC2)CC1C(=O)Nc1cc2cc(N3CCN(C4(C)COCC4O)CC3)c(Cl)cc2cn1` (single isomer, unassigned) [Ex-10.83, (1R,2R or 1S,2S, or 1R,2S, or 1S,2R)-N-[7-chloro-6-[4-((3R,4R or 3S,4S)-4-hydroxy-3-methyl-tetrahydrofuran-3-yl)piperazin-1-yl]-3-isoquinolyl]-2-methyl-2-tetrahydrofuran-3-yl-cyclopropanecarboxamide] was tested, and the IC50 was 0.525 nM. `CC1(C2CCOC2)CC1C(=O)Nc1cc2cc(N3CCN(C4(C)COCC4O)CC3)c(Cl)cc2cn1` (single isomer, unassigned) [Ex-10.84, (1R,2R or 1S,2S, or 1R,2S, or 1S,2R)-N-[7-chloro-6-[4-((3R,4R or 3S,4S)-4-hydroxy-3-methyl-tetrahydrofuran-3-yl)piperazin-1-yl]-3-isoquinolyl]-2-methyl-2-tetrahydrofuran-3-yl-cyclopropanecarboxamide] was tested, and the IC50 was 0.214 nM. For `CC1(C2CCOC2)CC1C(=O)Nc1cc2cc(N3CCN(C4(C)COCC4O)CC3)c(Cl)cc2cn1` (single isomer, unassigned) [Ex-10.85, (1R,2R or 1S,2S, or 1R,2S, or 1S,2R)-N-[7-chloro-6-[4-((3R,4R or 3S,4S)-4-hydroxy-3-methyl-tetrahydrofuran-3-yl)piperazin-1-yl]-3-isoquinolyl]-2-methyl-2-tetrahydrofuran-3-yl-cyclopropanecarboxamide], the IC50 was 0.0813 nM. With `CC1(C2CCOC2)CC1C(=O)Nc1cc2cc(N3CCN(C4(C)COCC4O)CC3)c(Cl)cc2cn1` (single isomer, unassigned) [Ex-10.86, (1R,2R or 1S,2S, or 1R,2S, or 1S,2R)-N-[7-chloro-6-[4-((3R,4R or 3S,4S)-4-hydroxy-3-methyl-tetrahydrofuran-3-yl)piperazin-1-yl]-3-isoquinolyl]-2-methyl-2-tetrahydrofuran-3-yl-cyclopropanecarboxamide] the IC50 was 0.0813 nM. With `CC1(C2CCOC2)CC1C(=O)Nc1cc2cc(N3CCN(C4(C)COCC4O)CC3)c(Cl)cc2cn1` (single isomer, unassigned) [Ex-10.87, (1R,2R or 1S,2S, or 1R,2S, or 1S,2R)-N-[7-chloro-6-[4-((3R,4R or 3S,4S)-4-hydroxy-3-methyl-tetrahydrofuran-3-yl)piperazin-1-yl]-3-isoquinolyl]-2-methyl-2-tetrahydrofuran-3-yl-cyclopropanecarboxamide] the IC50 was 0.0813 nM. Compound `CC1(C2CCOC2)CC1C(=O)Nc1cc2cc(N3CCN(C4(C)COCC4O)CC3)c(Cl)cc2cn1` (single isomer, unassigned) [Ex-10.88, (1R,2R or 1S,2S, or 1R,2S, or 1S,2R)-N-[7-chloro-6-[4-((3R,4R or 3S,4S)-4-hydroxy-3-methyl-tetrahydrofuran-3-yl)piperazin-1-yl]-3-isoquinolyl]-2-methyl-2-tetrahydrofuran-3-yl-cyclopropanecarboxamide] has an IC50 of 0.182 nM. `CCC1C(C(=O)Nc2cc3cc(N4CCN(C5(C)COCC5F)CC4)c(Cl)cc3cn2)C1c1ccccn1` (single isomer, unassigned) [Ex-10.89, (1R,2R,3R, or 1R,2S,3R, or 1S,2R,3S, or 1S,2S,3S)-N-[7-chloro-6-[4-((3R,4R or 3S,4S)-4-fluoro-3-methyl-tetrahydrofuran-3-yl)piperazin-1-yl]-3-isoquinolyl]-2-ethyl-3-(2-pyridyl)cyclopropanecarboxamide] was tested, and the IC50 was 0.0813 nM. `CCC1C(C(=O)Nc2cc3cc(N4CCN(C5(C)COCC5F)CC4)c(Cl)cc3cn2)C1c1ccccn1` (single isomer, unassigned) [Ex-10.90, (1R,2R,3R, or 1R,2S,3R, or 1S,2R,3S, or 1S,2S,3S)-N-[7-chloro-6-[4-((3R,4R or 3S,4S)-4-fluoro-3-methyl-tetrahydrofuran-3-yl)piperazin-1-yl]-3-isoquinolyl]-2-ethyl-3-(2-pyridyl)cyclopropanecarboxamide] showed an IC50 of 2.04 nM. For `CC1(C)C(C(=O)Nc2cc3cc(N4CCN(C5(C)COCC5O)CC4)c(Cl)cc3cn2)C1C1CCCCO1` (single isomer, unassigned) [Ex-10.91, (1R,2R,3R, 1R,2S,3R, or 1S,2R,3S, or 1S,2S,3S)-N-[7-chloro-6-[4-((3R,4R or 3S,4S)-4-hydroxy-3-methyl-tetrahydrofuran-3-yl)piperazin-1-yl]-3-isoquinolyl]-2,2-dimethyl-3-tetrahydropyran-2-yl-cyclopropanecarboxamide], the IC50 was 0.0813 nM. In the case of `CC1(C)C(C(=O)Nc2cc3cc(N4CCN(C5(C)COCC5O)CC4)c(Cl)cc3cn2)C1C1CCCCO1` (single isomer, unassigned) [Ex-10.92, (1R,2R,3R, 1R,2S,3R, or 1S,2R,3S, or 1S,2S,3S)-N-[7-chloro-6-[4-((3R,4R or 3S,4S)-4-hydroxy-3-methyl-tetrahydrofuran-3-yl)piperazin-1-yl]-3-isoquinolyl]-2,2-dimethyl-3-tetrahydropyran-2-yl-cyclopropanecarboxamide], the IC50 is reported as 1.95 nM. For `CC1(c2ccccn2)CC1C(=O)Nc1cc2cc(N3CCN(C4(C)COCC4O)CC3)c(Cl)cc2cn1` (single isomer, unassigned) [Ex-11.1, (1R,2R)(3R,4R)— or (1R,2S)(3R,4R)— or (1S,2R)(3R,4R)— or (1S,2S)(3R,4R)— or (1R,2R)(3S,4S)— or (1R,2S)(3S,4S)— or (1S,2R)(3S,4S)— or (1S,2S)(3S,4S)-N-(7-chloro-6-(4-(4-hydroxy-3-methyltetrahydrofuran-3-yl)piperazin-1-yl)isoquinolin-3-yl)-2-methyl-2-(pyridin-2-yl)cyclopropane-1-carboxamide], the IC50 was 0.0813 nM. In the case of `CC1(c2ccccn2)CC1C(=O)Nc1cc2cc(N3CCN(C4(C)COCC4O)CC3)c(Cl)cc2cn1` (single isomer, unassigned) [Ex-11.2, (1R,2R)(3R,4R)— or (1R,2S)(3R,4R)— or (1S,2R)(3R,4R)— or (1S,2S)(3R,4R)— or (1R,2R)(3S,4S)— or (1R,2S)(3S,4S)— or (1S,2R)(3S,4S)— or (1S,2S)(3S,4S)-N-(7-chloro-6-(4-(4-hydroxy-3-methyltetrahydrofuran-3-yl)piperazin-1-yl)isoquinolin-3-yl)-2-methyl-2-(pyridin-2-yl)cyclopropane-1-carboxamide], the IC50 is reported as 45.7 nM. `CC1C(C(=O)Nc2cc3cc(N4CCN(C5(C)COCC5O)CC4)c(Cl)cc3cn2)C1c1ccccn1` (single isomer, unassigned) [Ex-11.3, (1R,2R,3R, or 1R,2S,3R, or 1S,2R,3S, or 1S,2S,3S)-N-(7-chloro-6-(4-((3R,4R or 3S,4S)-4-hydroxy-3-methyltetrahydrofuran-3-yl)piperazin-1-yl)isoquinolin-3-yl)-2-methyl-3-(pyridin-2-yl)cyclopropane-1-carboxamide] showed an IC50 of 0.0813 nM. Compound `CC1C(C(=O)Nc2cc3cc(N4CCN(C5(C)COCC5O)CC4)c(Cl)cc3cn2)C1c1ccccn1` (single isomer, unassigned) [Ex-11.4, (1R,2R,3R, or 1R,2S,3R, or 1S,2R,3S, or 1S,2S,3S)-N-(7-chloro-6-(4-((3R,4R or 3S,4S)-4-hydroxy-3-methyltetrahydrofuran-3-yl)piperazin-1-yl)isoquinolin-3-yl)-2-methyl-3-(pyridin-2-yl)cyclopropane-1-carboxamide] has an IC50 of 0.977 nM. With `CC1(N2CCN(c3cc4cc(NC(=O)C5CCC5c5ccccn5)ncc4cc3Cl)CC2)COCC1O` (single isomer, unassigned) [Ex-11.5, (1R,2R or 1S,2S)-N-(7-chloro-6-(4-((3R,4R or 3S,4S)-4-hydroxy-3-methyltetrahydrofuran-3-yl)piperazin-1-yl)isoquinolin-3-yl)-2-(pyridin-2-yl)cyclobutane-1-carboxamide] the IC50 was 0.0813 nM. For `CC1(N2CCN(c3cc4cc(NC(=O)C5CCC5c5ccccn5)ncc4cc3Cl)CC2)COCC1O` (single isomer, unassigned) [Ex-11.6, (1R,2R or 1S,2S)-N-(7-chloro-6-(4-((3R,4R or 3S,4S)-4-hydroxy-3-methyltetrahydrofuran-3-yl)piperazin-1-yl)isoquinolin-3-yl)-2-(pyridin-2-yl)cyclobutane-1-carboxamide], the IC50 was 0.132 nM. In the case of `CCc1cc2cnc(NC(=O)C3CC34CCOCC4)cc2cc1N1CCN(C2(C)COCC2O)CC1` (single isomer, unassigned) [Ex-12, (R or S)-N-(7-ethyl-6-(4-(4-(3R,4R or 3S,4S)-hydroxy-3-methyltetrahydrofuran-3-yl)piperazin-1-yl)isoquinolin-3-yl)-6-oxaspiro[2.5]octane-1-carboxamide], the IC50 is reported as 0.525 nM. `COc1cc2cnc(NC(=O)C3CC34CCOCC4)cc2cc1N1CCN(C2(C)COCC2O)CC1` (single isomer, unassigned) [Ex-13] was tested, and the IC50 was 3.39 nM. Work on `C[C@H]1CN(C2(C)COCC2O)CCN1c1cc2cc(NC(=O)C3CC34CCOCC4)ncc2cc1Cl` (single isomer, unassigned) [Ex-14.1, N-(7-chloro-6-((2R or 2S)-4-(4-(3R,4R or 3S,4S)-hydroxy-3-methyltetrahydrofuran-3-yl)-2-methylpiperazin-1-yl)isoquinolin-3-yl)-6-oxaspiro[2.5]octane-1-carboxamide] yielded an IC50 of 87.1 nM. `C[C@H]1CN(C2(C)COCC2O)CCN1c1cc2cc(NC(=O)C3CC34CCOCC4)ncc2cc1Cl` (single isomer, unassigned) [Ex-14.2, N-(7-chloro-6-((2R or 2S)-4-(4-(3R,4R or 3S,4S)-hydroxy-3-methyltetrahydrofuran-3-yl)-2-methylpiperazin-1-yl)isoquinolin-3-yl)-6-oxaspiro[2.5]octane-1-carboxamide] gave an IC50 of 0.0813 nM. Work on `Cc1cc2cnc(NC(=O)C3CC34CCOCC4)cc2cc1N1CCN(C2(C)COCC2O)C[C@@H]1C` (single isomer, unassigned) [Ex-15.1, (R or S)-N-(6-((2R or 2S)-4-(4-(3R,4R or 3S,4S)-hydroxy-3-methyltetrahydrofuran-3-yl)-2-methylpiperazin-1-yl)-7-methylisoquinolin-3-yl)-6-oxaspiro[2.5]octane-1-carboxamide] yielded an IC50 of 4.68 nM.
